# Tests used:
# Type in all cases: in vivo
# [1] = test system: redroot pigweed (Amaranthus retroflexus, AMARE); assay: Pre-emerge test, greenhouse herbicide activity screening; settings: pre-emerge, phytotoxicity rating 0-100 at 14 days after application
# Outline: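 Rating: 0–100 visual injury, 14 DAA. Application: acetone, 187 l/ha, 15–1000 g ai/ha, flat-fan track sprayer with nozzle 40–45 cm above soil or canopy. Post-emerge runs used 0.25% v/v surfactant on 2–3 leaf plants.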
# [2] = test system: barnyardgrass (Echinochloa crus-galli, ECHCG); assay: as above; settings: pre-emerge, phytotoxicity rating 0-100 at 14 days after application
# Outline: (§1)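 Compounds in acetone were track-sprayed at 187 l/ha, 15–1000 g ai/ha, onto sandy loam pots. Pre-emerge seeds were sown one day before spraying, with surface watering afterwards. Post-emerge plants were at the 2–3 leaf stage and sprayed with 0.25% v/v non-ionic surfactant. Injury was rated 0–100 at 14 days.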
# [3] = test system: green foxtail (Setaria viridis, SETVI); assay: as above; settings: pre-emerge, phytotoxicity rating 0-100 at 14 days after application
# Outline: as §1
# [4] = test system: ivyleaf morningglory (Ipomoea hederacea, IPOHE); assay: as above; settings: pre-emerge, phytotoxicity rating 0-100 at 14 days after application
# Outline: as §1
# [5] = test system: lambsquarters (Chenopodium album, CHEAL); assay: as above; settings: pre-emerge, phytotoxicity rating 0-100 at 14 days after application
# Outline: as §1
# [6] = test system: large crabgrass (Digitaria sanguinalis, DIGSA); assay: as above; settings: pre-emerge, phytotoxicity rating 0-100 at 14 days after application
# Outline: as §1
# [7] = test system: sicklepod (Cassia obtusifolia, CASOB); assay: as above; settings: pre-emerge, phytotoxicity rating 0-100 at 14 days after application
# Outline: as §1
# [8] = test system: velvetleaf (Abutilon theophrasti, ABUTH); assay: as above; settings: pre-emerge, phytotoxicity rating 0-100 at 14 days after application
# Outline: as §1
# [9] = test system: field corn (Zea mays L., var. Dekalb 535, CORN); assay: Pre-emerge test, crop safety; settings: crop damage, pre-emerge, phytotoxicity rating 0-100 at 14 days after application
# Outline: (§2)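 Applied at 15–1000 g ai/ha from acetone in 187 l/ha spray volume. Post-emergence applications included 0.25% v/v non-ionic surfactant and reached plants sown 8–21 days before. Pre-emergence applications were incorporated by surface watering. Efficacy or crop damage was rated on a 0–100 scale after 14 days.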
# [10] = test system: upland rice (Oryza sp., var. Tebonnet, RICE); assay: Pre-emerge test, crop safety; settings: crop damage, pre-emerge, phytotoxicity rating 0-100 at 14 days after application
# Outline: as §2
# [11] = test system: barnyardgrass (Echinochloa crus-galli, ECHCG); assay: Post-emerge test, greenhouse herbicide activity screening; settings: post-emerge, phytotoxicity rating 0-100 at 14 days after application
# Excerpt: (§3) A standard greenhouse herbicide activity screening system was used to evaluate the herbicidal efficacy and crop safety of these test compounds. Seven broadleaf weed species including redroot pigweed (Amaranthus retroflexus, AMARE, velvetleaf (Abutilon theophrasti, ABUTH), sicklepod (Cassia obtusifolia, CASOB), ivyleaf morningglory (Ipomoea hederacea, IPOHE), lambsquarters (Chenopodium album, CHEAL), common ragweed (Ambrosia artemisizfolia L., AMBEL), and cocklebur (Xanthium strumarium, XANST) were used as test species. Four grass weed species including green foxtail (Setaria viridis, SETVI), barnyardgrass (Echinochloa crus-galli, ECHCG), johnsongrass (Sorghum halepense, SORHA), and large crabgrass (Digitaria sanguinalis, DIGSA) were also used. In addition, three crop species, field corn (Zea mays L., var. Dekalb 535, CORN), soybean (Glycine max L., var. Pella 86, SOY), and is upland rice (Oryza sp., var. Tebonnet, RICE) were included.
# (§4) All plants were grown in 10 cm square plastic pots which were filled with a sandy loam soil mix. For pre-emerge tests, seeds were planted one day prior to application of the test compounds. For post-emerge tests, seeds were planted 8-21 days prior to the test to allow emergence and good foliage development prior to application of the test substances. At the time of the post-emerge application, plants of all species were usually at the 2-3 leaf stage of development.
# (§5) All test compounds Were dissolved in acetone and applied to the test units in a volume of 187 l /ha. Test materials were applied at rates ranging from 15 g ai/ha to 1000 g ai/ha using a track sprayer equipped with a TJ8001E even flow flat fan spray nozzle. Plants were arranged on a shelf so that the top of the canopy (post-emerge) or top of the soil surface (pre-emerge) was 40-45 cm below the nozzle. Pressurized air was used to force the test solution through the nozzle as it was mechanically advanced (via electrically driven chain drive) over the top of all test plants/pots. This application simulates a typical commercial field herbicide application.
# (§6) In the post-emerge test, a commercial non-ionic surfactant was also included (0.25% v/v) to enhance wetting of the leaf surfaces of target plants. Immediately after application, test units of the pre-emerge applications were watered at the soil surface to incorporate the test materials. Subsequently, these test units were bottom-watered. Post-emerge test units were always bottom-watered.
# (§7) At 14 days after application of the test materials, phytotoxicity ratings were recorded. A rating scale of 0-100 was used as previously described in Research Methods in Weed Science, 2nd edition, B. Truelove, Ed., Southern Weed Science Society, Auburn University, Auburn, Ala. 1977. Briefly, “0” corresponds to no damage and “100” corresponds to complete death of all plants in the test unit. This scale was used both to determine efficacy against weed species and damage to crop species. Herbicide activity data for various compounds of this invention, which are shown by compound No. in Tables 1-8, are shown in Tables 11 and 12.
# [12] = test system: green foxtail (Setaria viridis, SETVI); assay: as above; settings: post-emerge, phytotoxicity rating 0-100 at 14 days after application
# Excerpt: as §3, §4, §5, §6, §7
# [13] = test system: ivyleaf morningglory (Ipomoea hederacea, IPOHE); assay: as above; settings: post-emerge, phytotoxicity rating 0-100 at 14 days after application
# Excerpt: as §3, §4, §5, §6, §7
# [14] = test system: lambsquarters (Chenopodium album, CHEAL); assay: as above; settings: post-emerge, phytotoxicity rating 0-100 at 14 days after application
# Excerpt: as §3, §4, §5, §6, §7
# [15] = test system: large crabgrass (Digitaria sanguinalis, DIGSA); assay: as above; settings: post-emerge, phytotoxicity rating 0-100 at 14 days after application
# Excerpt: as §3, §4, §5, §6, §7
# [16] = test system: redroot pigweed (Amaranthus retroflexus, AMARE); assay: as above; settings: post-emerge, phytotoxicity rating 0-100 at 14 days after application
# Excerpt: as §3, §4, §5, §6, §7
# [17] = test system: sicklepod (Cassia obtusifolia, CASOB); assay: as above; settings: post-emerge, phytotoxicity rating 0-100 at 14 days after application
# Excerpt: as §3, §4, §5, §6, §7
# [18] = test system: velvetleaf (Abutilon theophrasti, ABUTH); assay: as above; settings: post-emerge, phytotoxicity rating 0-100 at 14 days after application
# Excerpt: as §3, §4, §5, §6, §7
# [19] = test system: field corn (Zea mays L., var. Dekalb 535, CORN); assay: Post-emerge test, crop safety; settings: post-emerge, crop damage rating 0-100 at 14 days after application
# Outline: as §1
# [20] = test system: upland rice (Oryza sp., var. Tebonnet, RICE); assay: Post-emerge test, crop safety; settings: post-emerge, crop damage rating 0-100 at 14 days after application
# Outline: as §1
Structure (SMILES),Pre-emerge Herbicidal Activity AMARE ([1]; rate 63 g ai/ha),Pre-emerge Herbicidal Activity AMARE ([1]; rate 250 g ai/ha),Pre-emerge Herbicidal Activity ECHCG ([2]; rate 63 g ai/ha),Pre-emerge Herbicidal Activity ECHCG ([2]; rate 250 g ai/ha),Pre-emerge Herbicidal Activity SETVI ([3]; rate 63 g ai/ha),Pre-emerge Herbicidal Activity SETVI ([3]; rate 250 g ai/ha),Pre-emerge Herbicidal Activity IPOHE ([4]; rate 63 g ai/ha),Pre-emerge Herbicidal Activity IPOHE ([4]; rate 250 g ai/ha),Pre-emerge Herbicidal Activity CHEAL ([5]; rate 63 g ai/ha),Pre-emerge Herbicidal Activity CHEAL ([5]; rate 250 g ai/ha),Pre-emerge Herbicidal Activity DIGSA ([6]; rate 63 g ai/ha),Pre-emerge Herbicidal Activity DIGSA ([6]; rate 250 g ai/ha),Pre-emerge Herbicidal Activity CASOB ([7]; rate 63 g ai/ha),Pre-emerge Herbicidal Activity CASOB ([7]; rate 250 g ai/ha),Pre-emerge Herbicidal Activity ABUTH ([8]; rate 63 g ai/ha),Pre-emerge Herbicidal Activity ABUTH ([8]; rate 250 g ai/ha),Pre-emerge Herbicidal Activity CORN ([9]; rate 63 g ai/ha),Pre-emerge Herbicidal Activity CORN ([9]; rate 250 g ai/ha),Pre-emerge Herbicidal Activity RICE ([10]; rate 63 g ai/ha),Pre-emerge Herbicidal Activity RICE ([10]; rate 250 g ai/ha),also measured
Cc1cccc(COC(=O)Nc2c(C)c(Cl)cc(F)c2-n2c(=O)cc(C(F)(F)F)n(C)c2=O)c1 [4-68],100,100,60,98,100,100,40,100,100,100,100,100,40,100,100,100,45,80,50,90,Post-emerge Herbicidal Activity ECHCG ([11]; 63 g ai/ha): 90; Post-emerge Herbicidal Activity ECHCG ([11]; 250 g ai/ha): 98; Post-emerge Herbicidal Activity SETVI ([12]; 63 g ai/ha): 100; Post-emerge Herbicidal Activity SETVI ([12]; 250 g ai/ha): 100; Post-emerge Herbicidal Activity IPOHE ([13]; 63 g ai/ha): 100; Post-emerge Herbicidal Activity IPOHE ([13]; 250 g ai/ha): 100; Post-emerge Herbicidal Activity CHEAL ([14]; 63 g ai/ha): 100; Post-emerge Herbicidal Activity CHEAL ([14]; 250 g ai/ha): 100; Post-emerge Herbicidal Activity DIGSA ([15]; 63 g ai/ha): 75; Post-emerge Herbicidal Activity DIGSA ([15]; 250 g ai/ha): 90; Post-emerge Herbicidal Activity AMARE ([16]; 63 g ai/ha): 100; Post-emerge Herbicidal Activity AMARE ([16]; 250 g ai/ha): 100; Post-emerge Herbicidal Activity CASOB ([17]; 63 g ai/ha): 100; Post-emerge Herbicidal Activity CASOB ([17]; 250 g ai/ha): 100; Post-emerge Herbicidal Activity ABUTH ([18]; 63 g ai/ha): 100; Post-emerge Herbicidal Activity ABUTH ([18]; 250 g ai/ha): 100; Post-emerge Herbicidal Activity CORN ([19]; 63 g ai/ha): 95; Post-emerge Herbicidal Activity CORN ([19]; 250 g ai/ha): 100; Post-emerge Herbicidal Activity RICE ([20]; 63 g ai/ha): 60; Post-emerge Herbicidal Activity RICE ([20]; 250 g ai/ha): 80
Cc1cc(C)c(COC(=O)Nc2c(C)c(Cl)cc(F)c2-n2c(=O)cc(C(F)(F)F)n(C)c2=O)c(C)c1 [4-69],30,80,30,70,95,100,0,40,70,90,100,100,0,50,80,90,0,0,10,30,Post-emerge Herbicidal Activity ECHCG ([11]; 63 g ai/ha): 20; Post-emerge Herbicidal Activity ECHCG ([11]; 250 g ai/ha): 40; Post-emerge Herbicidal Activity SETVI ([12]; 63 g ai/ha): 40; Post-emerge Herbicidal Activity SETVI ([12]; 250 g ai/ha): 80; Post-emerge Herbicidal Activity IPOHE ([13]; 63 g ai/ha): 70; Post-emerge Herbicidal Activity IPOHE ([13]; 250 g ai/ha): 100; Post-emerge Herbicidal Activity CHEAL ([14]; 63 g ai/ha): 90; Post-emerge Herbicidal Activity CHEAL ([14]; 250 g ai/ha): 100; Post-emerge Herbicidal Activity DIGSA ([15]; 63 g ai/ha): 20; Post-emerge Herbicidal Activity DIGSA ([15]; 250 g ai/ha): 50; Post-emerge Herbicidal Activity AMARE ([16]; 63 g ai/ha): 100; Post-emerge Herbicidal Activity AMARE ([16]; 250 g ai/ha): 100; Post-emerge Herbicidal Activity CASOB ([17]; 63 g ai/ha): 40; Post-emerge Herbicidal Activity CASOB ([17]; 250 g ai/ha): 70; Post-emerge Herbicidal Activity ABUTH ([18]; 63 g ai/ha): 100; Post-emerge Herbicidal Activity ABUTH ([18]; 250 g ai/ha): 100; Post-emerge Herbicidal Activity CORN ([19]; 63 g ai/ha): 5; Post-emerge Herbicidal Activity CORN ([19]; 250 g ai/ha): 35; Post-emerge Herbicidal Activity RICE ([20]; 63 g ai/ha): 0; Post-emerge Herbicidal Activity RICE ([20]; 250 g ai/ha): 40

# Reference: patent publication US6355799B1, “Substituted benzene compounds, process for their preparation, and herbicidal and defoliant compositions containing them” (ISK Americas Incorporated, priority 1997, dated 2002)
